The target in test [1] is T1, Beta-3 adrenergic receptor (Homo sapiens, UniProt P13945). Description: Ability to bind to human Beta-3 adrenergic receptor using membranes of stably transfected CHO cells. The test is classed as cell-based.
Target sequence in this assay (P13945 whole entry): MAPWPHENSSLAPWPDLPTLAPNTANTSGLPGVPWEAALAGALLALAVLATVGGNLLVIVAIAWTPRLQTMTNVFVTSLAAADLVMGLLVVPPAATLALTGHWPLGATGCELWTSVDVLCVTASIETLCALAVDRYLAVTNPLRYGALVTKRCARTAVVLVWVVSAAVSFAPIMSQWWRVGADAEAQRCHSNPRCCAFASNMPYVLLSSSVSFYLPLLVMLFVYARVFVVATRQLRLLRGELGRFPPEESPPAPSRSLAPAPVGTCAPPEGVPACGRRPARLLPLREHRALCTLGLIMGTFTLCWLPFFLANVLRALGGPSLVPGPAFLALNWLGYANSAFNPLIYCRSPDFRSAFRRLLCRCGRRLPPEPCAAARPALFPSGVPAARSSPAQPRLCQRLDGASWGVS
In test [2] the target is Beta-1 adrenergic receptor (Homo sapiens, UniProt P08588). Description: Ability to bind to human Beta-1 adrenergic receptor using membranes of stably transfected CHO cells. The test is classed as cell-based.
The target in test [3] is Adrenergic receptor beta; ADRB1 & ADRB3 (Homo sapiens) (UniProt P08588+P13945). Briefly: Binding selectivity ratio for beta 3 over beta 1 AR (S beta3/beta1). The test is classed as protein assay.
Sequence of Adrenergic receptor beta; ADRB1 & ADRB3 (Homo sapiens) (P08588 whole entry, looked up): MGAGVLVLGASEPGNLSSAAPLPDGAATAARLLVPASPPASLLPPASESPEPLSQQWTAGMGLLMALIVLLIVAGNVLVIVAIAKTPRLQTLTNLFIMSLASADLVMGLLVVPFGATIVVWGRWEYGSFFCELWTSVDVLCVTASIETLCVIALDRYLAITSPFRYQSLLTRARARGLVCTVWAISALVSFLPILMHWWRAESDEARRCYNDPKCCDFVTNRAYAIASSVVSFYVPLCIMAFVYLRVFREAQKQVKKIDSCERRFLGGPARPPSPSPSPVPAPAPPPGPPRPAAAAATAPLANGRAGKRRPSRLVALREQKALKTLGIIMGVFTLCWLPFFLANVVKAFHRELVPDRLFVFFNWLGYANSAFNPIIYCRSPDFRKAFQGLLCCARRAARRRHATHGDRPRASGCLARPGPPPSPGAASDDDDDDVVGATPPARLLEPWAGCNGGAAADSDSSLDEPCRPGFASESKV
Sequence of Adrenergic receptor beta; ADRB1 & ADRB3 (Homo sapiens) (P13945 whole entry, looked up): as the sequence (P13945 whole entry) above
For test [4], the target named is Beta-2 adrenergic receptor (Homo sapiens, UniProt P07550). Briefly: Ability to bind to human Beta-2 adrenergic receptor using membranes of stably transfected CHO cells. The test is classed as cell-based.
Sequence of Beta-2 adrenergic receptor (P07550 whole entry): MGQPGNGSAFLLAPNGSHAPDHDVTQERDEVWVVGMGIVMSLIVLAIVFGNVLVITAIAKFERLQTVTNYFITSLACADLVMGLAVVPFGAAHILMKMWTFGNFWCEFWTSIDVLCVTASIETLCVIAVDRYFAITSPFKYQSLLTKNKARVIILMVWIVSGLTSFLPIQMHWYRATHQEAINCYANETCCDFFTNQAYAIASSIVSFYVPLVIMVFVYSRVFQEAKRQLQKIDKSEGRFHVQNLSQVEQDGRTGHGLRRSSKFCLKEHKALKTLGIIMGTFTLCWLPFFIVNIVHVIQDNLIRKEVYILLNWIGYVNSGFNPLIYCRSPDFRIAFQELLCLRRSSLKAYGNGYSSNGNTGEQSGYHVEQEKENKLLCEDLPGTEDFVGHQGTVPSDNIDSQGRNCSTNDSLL
The target in test [5] is T1, Beta-3 adrenergic receptor. Description: Intrinsic activity as maximal cyclase activity in CHO-beta3 AR cell membranes compared to (-)-isoproterenol. The test is classed as functional, cell-based.
Target sequence in this assay (P13945 whole entry, looked up): as the sequence (P13945 whole entry) above
The target of test [6] is T1, Beta-3 adrenergic receptor. Briefly: Effective concentration for stimulation of adenylyl cyclase activity in CHO-beta3 AR expressing cell membranes. Type of test: functional.
Target sequence in this assay (P13945 whole entry): as above
Test [7] deals with Beta-2 adrenergic receptor and beta-3 adrenergic receptor (Homo sapiens) (UniProt P07550+P13945). Description: Binding selectivity ratio for beta 3 over beta 2 AR (S beta3/beta2). The test is classed as protein assay.

Molecules are shown by their SMILES. Where only a bound is given, the exact number is not on record here.

Sequence of Beta-1 adrenergic receptor (P08588 whole entry): as the sequence (P08588 whole entry, looked up) above

Regarding `C[C@H](Cc1ccc(OCC(N)=O)cc1)NC[C@H](O)c1cccc(Cl)c1`, the Ki in test [1] was determined as 3700 nM; in test [2] it was 590 nM; in test [4] it was 170 nM. Besides, the Selectivity in test [3] amounted to 0.16; in test [7], 0.046. This molecule also showed an Activity in test [5] of 0.6. Also, the EC50 in test [6] amounted to 1610 nM.

On to `C[C@H](Cc1ccc(OC(C(=O)O)C(=O)O)cc1)NC[C@H](O)c1cccc(Cl)c1`, for which the results for the inhibition constant (Ki) in test [1], in test [2] and in test [4] were 11100 nM, 243000 nM and 17100 nM, respectively. The Selectivity came out at 22 in test [3] and 1.5 in test [7].

Consider `C[C@H](Cc1ccc(OCC(=O)NO)cc1)NC[C@H](O)c1cccc(Cl)c1`, for which the Ki came out at 1960 nM in test [1], 310 nM in test [2] and 112 nM in test [4]. The Selectivity was 0.16 in test [3] and 0.057 in test [7]. In addition, in test [5], the Activity came to 0.66. The molecule further gave an EC50 in test [6] of 1610 nM.

In the case of `C[C@H](Cc1ccc(OCCO)cc1)NC[C@H](O)c1cccc(Cl)c1`, the Ki was determined as 2140 nM in test [1], 1250 nM in test [2] and 260 nM in test [4]. Besides, the Selectivity in test [3] was 0.58; in test [7], 0.12. The same molecule gave an Activity in test [5] of 0.77. This molecule also came in with an EC50 in test [6] of 750 nM.

Consider `C[C@H](Cc1ccc(OCP(C)(=O)O)cc1)NC[C@H](O)c1cccc(Cl)c1`, for which the Ki in test [1] was 19900 nM; in test [2], 140000 nM; in test [4], 73700 nM. Besides, the Selectivity in test [3] was 7; in test [7], 3.7.

`C[C@H](Cc1ccc(OCC(=O)O)cc1)NC[C@H](O)c1cccc(Cl)c1` yielded an Activity in test [5] of 0.67.

On to `CC(C)OP(=O)(O)COc1ccc(C[C@@H](C)NC[C@H](O)c2cccc(Cl)c2)cc1`, for which the figures for the Ki in test [1], in test [2] and in test [4] were 18800 nM, 139000 nM and 42600 nM, respectively. The Selectivity is 7.4 in test [3] and 2.3 in test [7]. In test [5], this molecule displayed an Activity of 0.59. This molecule showed an EC50 in test [6] of 610 nM.

For `C[C@H](Cc1ccc(OCS(=O)(=O)O)cc1)NC[C@H](O)c1cccc(Cl)c1`, the Ki was determined as 806 nM in test [1], 7600 nM in test [2] and 2250 nM in test [4]. For the same molecule, the values for the Selectivity in test [3] and in test [7] were 9.4 and 2.8, respectively. This molecule had an Activity in test [5] of 0.57. This molecule yielded an EC50 in test [6] of 60 nM.

On to `COC(=O)COc1ccc(C[C@@H](C)NC[C@H](O)c2cccc(Cl)c2)cc1`, for which the values for the Ki in test [1], in test [2] and in test [4] were 1150 nM, 170 nM and 3.2 nM, respectively. The Selectivity in test [3] came to 0.15; in test [7], 0.0028. The molecule also gave an Activity in test [5] of 0.69. This molecule also gave a concentration giving a half-maximal response (EC50) in test [6] of 420 nM.

Consider `C[C@H](Cc1ccc(OCP(=O)(O)O)cc1)NC[C@H](O)c1cccc(Cl)c1`, for which the values for the inhibition constant (Ki) in test [1], in test [2] and in test [4] were 55300 nM, above 100000 nM and 39700 nM, respectively. Besides, the Selectivity in test [3] is above 1.8; in test [7], 0.72. The same molecule displayed an Activity in test [5] of 0.53. This molecule gave an EC50 in test [6] of 2640 nM.

These data come from ChEMBL document CHEMBL1151506, “Carboxyl-promoted enhancement of selectivity for the 3 adrenergic receptor. Negative charge of the sulfonic acid BMS-187413 introduces-3 binding selectivity” (Bioorg Med Chem Lett, 1997).
